{"source": "patent US20090099065A1", "about": "“Acylated Single Chain Insulin” (Novo Nordisk A/S, priority 2006, published 2009)", "data": [{"biological_target": "human insulin receptor (Homo sapiens, UniProt P06213)", "sequence (P06213 28-746 isoform P06213-2 limits assumed)": "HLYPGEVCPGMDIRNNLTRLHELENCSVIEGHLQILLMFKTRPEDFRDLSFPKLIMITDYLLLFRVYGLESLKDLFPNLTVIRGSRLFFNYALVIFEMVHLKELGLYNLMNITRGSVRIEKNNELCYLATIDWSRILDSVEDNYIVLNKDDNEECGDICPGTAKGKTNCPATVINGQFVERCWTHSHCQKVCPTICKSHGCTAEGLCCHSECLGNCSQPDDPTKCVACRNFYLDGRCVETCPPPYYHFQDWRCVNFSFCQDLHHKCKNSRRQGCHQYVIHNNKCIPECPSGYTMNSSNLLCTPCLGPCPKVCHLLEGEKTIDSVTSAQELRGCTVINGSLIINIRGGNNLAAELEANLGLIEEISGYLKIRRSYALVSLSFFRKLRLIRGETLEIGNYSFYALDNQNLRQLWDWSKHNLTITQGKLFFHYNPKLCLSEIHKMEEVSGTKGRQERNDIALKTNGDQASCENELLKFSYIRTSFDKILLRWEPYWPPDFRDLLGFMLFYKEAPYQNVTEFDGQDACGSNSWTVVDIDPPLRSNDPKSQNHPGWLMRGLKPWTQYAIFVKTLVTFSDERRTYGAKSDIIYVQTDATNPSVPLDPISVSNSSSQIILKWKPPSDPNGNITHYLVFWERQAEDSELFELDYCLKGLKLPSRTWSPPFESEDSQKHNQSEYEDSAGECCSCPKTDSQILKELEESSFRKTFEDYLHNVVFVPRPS", "sequence (P06213 763-1382 partner limits assumed)": "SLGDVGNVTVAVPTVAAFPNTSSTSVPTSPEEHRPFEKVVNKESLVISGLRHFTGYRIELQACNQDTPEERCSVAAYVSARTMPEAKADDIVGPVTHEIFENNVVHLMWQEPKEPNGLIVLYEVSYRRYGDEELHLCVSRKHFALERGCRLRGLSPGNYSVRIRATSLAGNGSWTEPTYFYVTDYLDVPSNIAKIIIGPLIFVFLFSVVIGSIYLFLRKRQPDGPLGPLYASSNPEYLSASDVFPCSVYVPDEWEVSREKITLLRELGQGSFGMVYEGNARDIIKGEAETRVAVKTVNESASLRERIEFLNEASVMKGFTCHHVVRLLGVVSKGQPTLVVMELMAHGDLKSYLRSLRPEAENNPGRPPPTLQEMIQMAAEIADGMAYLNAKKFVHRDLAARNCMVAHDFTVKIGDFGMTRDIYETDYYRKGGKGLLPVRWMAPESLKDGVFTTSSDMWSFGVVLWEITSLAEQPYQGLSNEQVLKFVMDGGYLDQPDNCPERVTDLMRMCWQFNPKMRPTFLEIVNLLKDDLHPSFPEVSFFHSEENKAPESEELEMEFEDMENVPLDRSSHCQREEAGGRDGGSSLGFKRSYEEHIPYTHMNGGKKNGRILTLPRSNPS", "assay": "Assay (I): insulin receptor binding, SPA microtiterplate antibody capture assay", "conditions": "purified recombinant human insulin receptor - exon 11; A14 Tyr[125I]-human insulin tracer; human insulin = 100%", "protocol": "Insulin Receptor Binding of the Acylated, Single-Chain Insulin\nThe affinity of the acylated, single-chain insulins for the human insulin receptor can be determined by a SPA assay (Scintillation Proximity Assay) microtiterplate antibody capture assay. SPA-PVT antibody-binding beads, anti-mouse reagent (Amersham Biosciences, Cat No. PRNQ0017) are mixed with 25 ml of binding buffer (100 mM HEPES pH 7.8; 100 mM sodium chloride, 10 mM MgSO4, 0.025% Tween-20). Reagent mix for a single Packard Optiplate (Packard No. 6005190) is composed of 2.4 μl of a 1:5000 diluted purified recombinant human insulin receptor—exon 11, an amount of a stock solution of A14 Tyr[125I]-human insulin corresponding to 5000 cpm per 100 μl of reagent mix, 12 μl of a 1:1000 dilution of F12 antibody, 3 ml of SPA-beads and binding buffer to a total of 12 ml. A total of 100 μl is then added and a dilution series is made from appropriate samples. To the dilution series is then added 100 μl of reagent mix and the samples are incubated for 16 hours while gently shaken. The phases are then separated by centrifugation for 1 min and the plates counted in a Topcounter. The binding data are fitted using the nonlinear regression algorithm in the GraphPad Prism 2.01 (GraphPad Software, San Diego, Calif.).", "units": {"insulin receptor binding relative to that of human insulin": "%"}, "values": [{"substance": "B(1-29)-B29H-TGLGSGR-A(1-21)-A18K(N-eps-hexadecandioyl-g-L-Glu)-A21 G Human insulin [Example 7]", "insulin receptor binding relative to that of human insulin": 45.7}, {"substance": "B(1-29)-B29A-VGLSSGQ-A(1-22)-A18Q, A22K(N(eps)hexadecandioyl-gGlu) Human Insulin [Example 4]", "insulin receptor binding relative to that of human insulin": 44}, {"substance": "B(1-29)-B29A-VGLSSGQ-A(1-22)-A18Q, A22K(N(eps)octadecandioyl) Human Insulin [Example 5]", "insulin receptor binding relative to that of human insulin": 24}, {"substance": "B(1-29)-B29A-VGLSSGQ-A(1-21)-A18K(N(eps)hexadecandioyl-gGlu) Human Insulin [Example 1]", "insulin receptor binding relative to that of human insulin": 25}, {"substance": "B(1-29)-B29A-VGLSSGQ-A(1-21)-A15K(N(eps)-hexadecandioyl-g-L-Glu)-A18Q Human Insulin [Example 9]", "insulin receptor binding relative to that of human insulin": 17.4}, {"substance": "B(1-29)-B29A-VGLSSGQ-A(1-21)-A8K(N(eps)hexadecandioyl-gGlu)-A18Q Human Insulin [Example 6]", "insulin receptor binding relative to that of human insulin": 73}, {"substance": "B(1-29)-B29A-VGLSSGQ-A(1-22)-A18Q-A22K((eps)heptadecandioyl-g-Glu) Human Insulin [Example 10]", "insulin receptor binding relative to that of human insulin": 43}, {"substance": "B(1-29)-B29A-VGLSSGQ-A(1-21)-A18K(N(eps)myristoyl) Human Insulin [Example 3]", "insulin receptor binding relative to that of human insulin": 27}, {"substance": "B(1-29)-B29Q-TGLGSCR-A(1-22)-A18Q, A21 G-A22K(N (eps)hexadecand ioyl-g-LGlu) Human Insulin [Example 8]", "insulin receptor binding relative to that of human insulin": 112.8}, {"substance": "B(1-29)-B29A-VGLSSGQ-A(1-22)-A18Q, A22K(N(eps)myristoyl) Human Insulin [Example 2]", "insulin receptor binding relative to that of human insulin": 62}]}, {"biological_target": "purified recombinant human insulin receptor-exon 11 (human) (UniProt P06213)", "sequence (P06213 other isoform, or with tags, fused parts or gaps limits assumed, form in doubt)": "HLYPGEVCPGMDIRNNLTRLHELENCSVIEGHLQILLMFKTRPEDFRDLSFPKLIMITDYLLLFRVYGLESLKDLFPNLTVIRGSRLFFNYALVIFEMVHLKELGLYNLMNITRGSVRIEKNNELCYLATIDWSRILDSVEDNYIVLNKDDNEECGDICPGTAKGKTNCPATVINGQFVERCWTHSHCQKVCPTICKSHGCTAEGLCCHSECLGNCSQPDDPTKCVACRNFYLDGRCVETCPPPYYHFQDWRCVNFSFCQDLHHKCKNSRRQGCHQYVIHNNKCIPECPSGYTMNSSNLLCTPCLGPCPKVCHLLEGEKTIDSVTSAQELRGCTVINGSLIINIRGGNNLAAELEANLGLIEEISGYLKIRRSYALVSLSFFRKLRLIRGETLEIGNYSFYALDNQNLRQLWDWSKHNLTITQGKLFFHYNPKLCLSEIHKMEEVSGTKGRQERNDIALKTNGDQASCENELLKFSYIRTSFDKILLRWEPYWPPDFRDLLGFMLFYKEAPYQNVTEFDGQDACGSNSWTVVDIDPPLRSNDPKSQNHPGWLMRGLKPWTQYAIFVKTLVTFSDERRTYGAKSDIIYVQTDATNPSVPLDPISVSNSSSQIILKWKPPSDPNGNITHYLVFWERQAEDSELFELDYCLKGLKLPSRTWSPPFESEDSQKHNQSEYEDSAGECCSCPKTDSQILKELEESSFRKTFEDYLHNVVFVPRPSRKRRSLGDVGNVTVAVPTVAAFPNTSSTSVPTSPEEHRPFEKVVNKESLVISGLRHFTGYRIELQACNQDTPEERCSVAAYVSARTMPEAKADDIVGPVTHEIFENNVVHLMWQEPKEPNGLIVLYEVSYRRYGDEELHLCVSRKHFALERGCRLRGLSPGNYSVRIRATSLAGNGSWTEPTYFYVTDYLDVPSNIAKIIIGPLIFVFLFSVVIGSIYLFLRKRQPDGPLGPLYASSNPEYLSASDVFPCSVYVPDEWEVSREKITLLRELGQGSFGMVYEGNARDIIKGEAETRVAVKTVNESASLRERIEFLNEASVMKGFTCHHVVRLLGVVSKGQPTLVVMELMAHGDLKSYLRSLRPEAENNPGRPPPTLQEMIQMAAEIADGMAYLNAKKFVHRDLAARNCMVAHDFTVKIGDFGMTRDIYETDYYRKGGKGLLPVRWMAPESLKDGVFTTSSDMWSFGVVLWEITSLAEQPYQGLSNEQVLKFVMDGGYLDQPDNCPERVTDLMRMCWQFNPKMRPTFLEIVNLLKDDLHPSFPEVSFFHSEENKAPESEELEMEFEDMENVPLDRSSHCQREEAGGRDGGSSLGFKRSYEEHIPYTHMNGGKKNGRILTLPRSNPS", "assay": "assay (I): SPA, displacement of A14 Tyr[125I]-human insulin from recombinant human insulin receptor", "conditions": "not given", "units": {"insulin receptor binding relative to that of human insulin": "%"}, "values": [{"substance": "B(1-29)-B29A-VGLSSGQ-A(1-22)-A18Q-A22K((eps)heptadecandioyl-g-Glu) Human Insulin (from UniProt P01308 25-53; P01308 90-110) (ligand)", "insulin receptor binding relative to that of human insulin": 43}, {"substance": "B(1-29)-B29A-VGLSSGQ-A(1-21)-A18K(N(eps)myristoyl) Human Insulin (from UniProt P01308 25-53; P01308 90-110) (ligand)", "insulin receptor binding relative to that of human insulin": 27}, {"substance": "B(1-29)-B29A-VGLSSGQ-A(1-22)-A18Q, A22K(N(eps)hexadecandioyl-gGlu) Human Insulin (from UniProt P01308 25-53; P01308 90-110) (ligand)", "insulin receptor binding relative to that of human insulin": 44}, {"substance": "B(1-29)-B29A-VGLSSGQ-A(1-22)-A18Q, A22K(N(eps)octadecandioyl) Human Insulin (from UniProt P01308 25-53; P01308 90-110) (ligand)", "insulin receptor binding relative to that of human insulin": 24}, {"substance": "B(1-29)-B29A-VGLSSGQ-A(1-21)-A18K(N(eps)hexadecandioyl-gGlu) Human Insulin (from UniProt P01308 25-53; P01308 90-110) (ligand)", "insulin receptor binding relative to that of human insulin": 25}, {"substance": "B(1-29)-B29Q-TGLGSCR-A(1-22)-A18Q, A21 G-A22K(N (eps)hexadecand ioyl-g-LGlu) Human Insulin (from UniProt P01308 25-53; P01308 90-110) (ligand)", "insulin receptor binding relative to that of human insulin": 113}, {"substance": "B(1-29)-B29A-VGLSSGQ-A(1-22)-A18Q, A22K(N(eps)myristoyl) Human Insulin (from UniProt P01308 25-53; P01308 90-110) (ligand)", "insulin receptor binding relative to that of human insulin": 62}, {"substance": "B(1-29)-B29A-VGLSSGQ-A(1-21)-A15K(N(eps)-hexadecandioyl-g-L-Glu)-A18Q Human Insulin (from UniProt P01308 25-53; P01308 90-110) (ligand)", "insulin receptor binding relative to that of human insulin": 17.4}, {"substance": "B(1-29)-B29H-TGLGSGR-A(1-21)-A18K(N-eps-hexadecandioyl-g-L-Glu)-A21 G Human insulin (from UniProt P01308 25-53; P01308 90-110) (ligand)", "insulin receptor binding relative to that of human insulin": 45.7}, {"substance": "B(1-29)-B29A-VGLSSGQ-A(1-21)-A8K(N(eps)hexadecandioyl-gGlu)-A18Q Human Insulin (from UniProt P01308 25-53; P01308 90-110) (ligand)", "insulin receptor binding relative to that of human insulin": 73}]}]}
